Laboratory results reported in US9464291B2, “Methods and compositions for the treatment of cancer” (University of South Alabama, priority 2012, dated 2016).
Entries after “also recorded” stand apart in the source; their conditions may differ.

Tested on: c-jun (Ser 63, Ser 73, Thr 91, Thr 93)
Test: c-jun protein phosphorylation, Western blot, A2780-CP70 cells
Format: cell-based, human
Settings: 72 hr observation
Protocol: Protein levels for c-jun, c-fos, phosphorylated c-jun (Ser 63), phosphorylated c-jun (Ser 73), and phosphorylated c-jun (Thr 91, Thr 93) were tested in cytosolic, nuclear, and whole cell fractions at 0 hr, 6 hr, 24 hr, 48 hr, and 72 hr. Internal controls for cytosolic and nuclear fractions included α-tubulin and histone deacetylase 3.
Phosphorylation of c-jun in A2780-CP70 cells transfected with anti-GLI1 shRNA construct was assessed using Western blot analysis. Protein levels for c-jun, phosphorylated c-jun (Ser 63), phosphorylated c-jun (Ser 73), and phosphorylated c-jun (Thr 91, Thr 93) were examined at 0 hr, 6 hr, 24 hr, 48 hr, and 72 hr.
A2780-CP70 cells were treated with an IC50 dose of cisplatin and an IC50 dose of anti-Gli1 shRNA.

CC1=C2C[C@H]3[C@@H](CC=C4C[C@@H](O)CC[C@@]43C)[C@@H]2CC[C@]12O[C@@H]1C[C@H](C)CN[C@H]1[C@H]2C [cyclopamine] was tested, and the “c-jun phosphorylation at Ser63” value was “no phosphorylation occurred at Ser63; also recorded: no substantial expression was detected; also recorded: not observed” and the “c-jun phosphorylation at Thr91/93” value was “peak levels at 6 hr”.
